Measured values as given in publication PMC4869175, “Evidence that phytochrome functions as a protein kinase in plant light signalling” (Nature Communications, 2016).

Assays:
Test in all cases: Binding parameters of ATP by Scatchard plot using BODIPY-FL-ATP
D422R AsphyA mutant = molecular target: T1, D422R AsphyA mutant (Avena sativa, UniProt P06593, D422R); details: Scatchard plot with BODIPY-FL-ATP; result in words
T1 construct: After preparing purified full-length AsphyA mutants; made in house; host or cells: Pichia pastoris GS115
T1 sequence (P06593 whole entry D422R): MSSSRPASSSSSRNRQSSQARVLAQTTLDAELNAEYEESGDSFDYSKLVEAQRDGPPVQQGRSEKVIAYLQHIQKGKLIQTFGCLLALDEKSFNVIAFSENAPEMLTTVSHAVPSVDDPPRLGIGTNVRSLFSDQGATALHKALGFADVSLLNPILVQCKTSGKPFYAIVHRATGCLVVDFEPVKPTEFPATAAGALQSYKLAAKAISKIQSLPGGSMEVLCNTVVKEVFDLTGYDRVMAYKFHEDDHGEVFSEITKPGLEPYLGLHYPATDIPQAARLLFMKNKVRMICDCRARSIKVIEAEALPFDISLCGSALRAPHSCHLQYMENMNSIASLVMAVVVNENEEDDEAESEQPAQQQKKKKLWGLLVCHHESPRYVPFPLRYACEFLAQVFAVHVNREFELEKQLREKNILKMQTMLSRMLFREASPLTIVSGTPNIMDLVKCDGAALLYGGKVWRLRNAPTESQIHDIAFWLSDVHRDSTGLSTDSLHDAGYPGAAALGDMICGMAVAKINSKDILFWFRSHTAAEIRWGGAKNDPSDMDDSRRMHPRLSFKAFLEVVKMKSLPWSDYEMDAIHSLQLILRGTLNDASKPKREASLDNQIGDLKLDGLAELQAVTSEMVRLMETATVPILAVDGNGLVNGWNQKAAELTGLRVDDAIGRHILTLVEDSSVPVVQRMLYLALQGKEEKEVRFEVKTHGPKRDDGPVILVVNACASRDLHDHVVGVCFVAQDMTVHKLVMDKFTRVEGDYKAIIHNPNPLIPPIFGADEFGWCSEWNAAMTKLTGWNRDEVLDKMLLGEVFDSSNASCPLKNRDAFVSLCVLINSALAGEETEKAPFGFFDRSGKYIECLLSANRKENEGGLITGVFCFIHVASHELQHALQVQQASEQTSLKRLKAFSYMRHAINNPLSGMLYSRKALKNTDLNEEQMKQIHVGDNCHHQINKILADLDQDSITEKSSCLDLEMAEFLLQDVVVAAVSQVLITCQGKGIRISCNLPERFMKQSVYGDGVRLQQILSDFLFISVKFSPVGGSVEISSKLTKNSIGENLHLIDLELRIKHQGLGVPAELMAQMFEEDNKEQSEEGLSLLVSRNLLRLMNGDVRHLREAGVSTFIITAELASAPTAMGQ
Protocol: (§1) To estimate dissociation constant (Kd) and the number of binding sites (n) of ATP in AsphyA proteins, an ATP analogue BODIPY-FL-ATP (BODIPY FL 2′-(or-3′)-O-(N-(2-aminoethyl)urethane) adenosine triphosphate; Molecular Probes) was used. 0.5 μM AsphyA proteins were incubated with increasing concentration of BODIPY-FL-ATP (0.5–5 μM) for 10 min at 30 °C, and free (unbound) ATP analogue was separated from the ATP analogue-protein complex by using Amicon Ultra Centrifugal Filter with MWCO of 10,000 Da for 5 min at 4,000g. The spectrophotometric absorbance was then measured to determine the BODIPY-FL-ATP concentrations within flow-through and the complex solutions by using Shimadzu UV-1800 spectrophotometer. […] The concentrations of BODIPY-FL-ATP were also double-checked by measuring the emission intensity of BODIPY fluorophore at the excitation wavelength of 500 nm and emission wavelength of 515 nm. The fluorescence of free BODIPY-FL-ATP in the absence of any protein component was used as a linear standard curve. The Kd and n values were then calculated by a Scatchard plot of r/[BODIPY-FL-ATP]free versus r, where r is the molar ratio of [BODIPY-FL-ATP]bound to [AsphyA]total.
(§2) Supplementary Figure 12. Determination of binding parameters of ATP in AsphyA proteins. The number of binding sites (n) and dissociation constant (Kd) of ATP in AsphyA proteins were determined by Scatchard plots using an ATP analogue, BODIPY-FL-ATP (BODIPY® FL 2′-(or-3′)-O-(N-(2-aminoethyl)urethane) adenosine triphosphate). The n and Kd values were calculated from the slopes (-1/Kd) and x-axis intercepts (n) of the Scatchard plot of r/[BODIPY-FL-ATP]free versus r, where r was the molar ratio of [BODIPY-FL-ATP]bound to [AsphyA]total. The n values of full-length (FL) AsphyA and photosensory core (66-610) were both calculated at around one per polypeptide, and the Kd values were calculated at approximately 0.87 × 10^-6 M for FL-AsphyA, 0.72 × 10^-6 M for […]
(§3) level, possibly due to too low ATP binding.
(§4) (1 picture or pasted object on this page, not shown here)

K411L AsphyA mutant = molecular target: T2, K411L AsphyA mutant (Avena sativa, UniProt P06593, K411L)
T2 construct: After preparing purified full-length AsphyA mutants; made in house; host or cells: Pichia pastoris GS115
T2 sequence (P06593 whole entry K411L): as the sequence (P06593 whole entry D422R) above, with K411L, R422D counted along it
Protocol: as §1, §2, §3, §4

T418D AsphyA mutant = molecular target: T3, T418D AsphyA mutant (Avena sativa, UniProt P06593, T418D)
T3 construct: After preparing purified full-length AsphyA mutants; made in house; host or cells: Pichia pastoris GS115
T3 sequence (P06593 whole entry T418D): as the sequence (P06593 whole entry D422R) above, with T418D, R422D counted along it
Protocol: as §1, §2, §3, §4

full-length AsphyA = molecular target: T4, full-length AsphyA (Avena sativa, UniProt P06593); details: as restated in Discussion; Scatchard plot with BODIPY-FL-ATP; read-out: Kd value (ATP-binding site)
T4 construct: Full-length phytochrome genes of AsPHYA; made in house; host or cells: Pichia pastoris GS115
T4 sequence (P06593 1-1129): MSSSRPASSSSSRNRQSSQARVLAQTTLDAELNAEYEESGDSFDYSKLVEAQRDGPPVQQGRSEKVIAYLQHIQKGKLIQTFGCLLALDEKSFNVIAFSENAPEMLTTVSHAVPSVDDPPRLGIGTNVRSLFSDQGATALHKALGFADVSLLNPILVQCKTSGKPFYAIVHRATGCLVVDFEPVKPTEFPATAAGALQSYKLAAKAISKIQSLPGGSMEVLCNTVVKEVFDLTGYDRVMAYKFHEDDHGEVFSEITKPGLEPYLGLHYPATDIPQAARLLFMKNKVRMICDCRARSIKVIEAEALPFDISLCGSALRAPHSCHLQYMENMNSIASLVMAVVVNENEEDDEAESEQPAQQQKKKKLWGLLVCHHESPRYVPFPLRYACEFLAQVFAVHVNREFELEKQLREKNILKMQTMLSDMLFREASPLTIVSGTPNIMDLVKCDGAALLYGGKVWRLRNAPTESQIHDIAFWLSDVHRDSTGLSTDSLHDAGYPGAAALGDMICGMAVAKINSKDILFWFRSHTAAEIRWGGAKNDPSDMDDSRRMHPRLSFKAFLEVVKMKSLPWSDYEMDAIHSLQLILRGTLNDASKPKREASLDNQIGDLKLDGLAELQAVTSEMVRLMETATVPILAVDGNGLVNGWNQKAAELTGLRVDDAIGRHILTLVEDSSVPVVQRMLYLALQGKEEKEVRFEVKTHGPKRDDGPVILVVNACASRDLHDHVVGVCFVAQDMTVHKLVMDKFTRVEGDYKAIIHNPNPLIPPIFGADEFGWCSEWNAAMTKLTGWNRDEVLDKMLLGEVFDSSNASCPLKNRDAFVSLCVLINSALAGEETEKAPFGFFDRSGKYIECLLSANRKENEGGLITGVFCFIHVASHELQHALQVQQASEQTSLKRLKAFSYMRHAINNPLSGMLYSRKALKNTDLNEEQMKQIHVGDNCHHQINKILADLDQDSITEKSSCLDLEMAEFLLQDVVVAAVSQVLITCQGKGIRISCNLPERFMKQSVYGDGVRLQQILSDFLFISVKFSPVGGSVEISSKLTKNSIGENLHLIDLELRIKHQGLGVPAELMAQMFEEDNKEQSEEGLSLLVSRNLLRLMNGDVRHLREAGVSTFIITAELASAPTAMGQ
Protocol: as §1, §2, §3, §4

[1] = molecular target: T5, photosensory core of AsphyA (66-610) (Avena sativa, UniProt P06593); details: as restated in Discussion; Scatchard plot with BODIPY-FL-ATP; read-out: Kd value (ATP-binding site)
T5 construct: the PAS-GAF-PHY photosensory core (66–610aa) were also cloned into pPIC3.5K; made in house; host or cells: Pichia pastoris GS115
T5 sequence (P06593 66-610): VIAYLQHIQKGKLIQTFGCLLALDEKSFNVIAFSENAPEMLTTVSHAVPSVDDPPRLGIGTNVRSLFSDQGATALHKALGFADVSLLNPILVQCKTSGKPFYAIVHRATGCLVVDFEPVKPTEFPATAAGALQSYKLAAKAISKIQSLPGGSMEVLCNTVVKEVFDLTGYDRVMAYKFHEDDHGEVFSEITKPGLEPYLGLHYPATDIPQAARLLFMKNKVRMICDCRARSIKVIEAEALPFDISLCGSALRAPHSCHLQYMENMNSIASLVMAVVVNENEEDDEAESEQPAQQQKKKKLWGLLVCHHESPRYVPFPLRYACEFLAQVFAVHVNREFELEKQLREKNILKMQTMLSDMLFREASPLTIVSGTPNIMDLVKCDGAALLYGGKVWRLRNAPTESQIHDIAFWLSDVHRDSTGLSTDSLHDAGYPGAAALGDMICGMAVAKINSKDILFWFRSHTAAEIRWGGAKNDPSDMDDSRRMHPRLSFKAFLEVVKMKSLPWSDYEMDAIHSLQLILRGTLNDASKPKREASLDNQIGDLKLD
Protocol: as §1, §2, §3, §4

Structure (SMILES): Nc1ncnc2c1ncn2[C@@H]1O[C@H](COP(=O)(O)OP(=O)(O)OP(=O)(O)O)[C@@H](O)[C@H]1O [ATP]
- dissociation constant (Kd) of ATP (D422R AsphyA mutant): could not obtain the Kd value at micromolar level
- Kd (K411L AsphyA mutant): ~1.32 µM
- Kd (T418D AsphyA mutant): 4.76 µM
- Kd (full-length AsphyA): 0.87 µM
- Kd [1]: 0.72 µM
